This is an account of results in patent US10676431B2, “Phenylpyrrolidinone formyl peptide 2 receptor agonists” (BRISTOL-MYERS SQUIBB COMPANY, priority 2018, dated 2020).

Assay [1] concerns the target human FPR1 (Homo sapiens (Human), UniProt P21462). The assay is described as follows: FPR1 cyclic adenosine monophosphate (cAMP) assay. The format is cell-based. Particulars: CHO cells overexpressing human FPR1; forskolin 10 μM, IBMX 200 μM; inhibition of cAMP production, HTRF; read-out: hFPR1 cAMP EC50. A digest of the protocol:
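CHO cells overexpressing human FPR1 (4,000 per well) were incubated 30 min at room temperature with compound (0.020 nM–100 μM, 1% DMSO), 10 μM forskolin and 200 μM IBMX. Intracellular cAMP was read by HTRF. Inhibition of cAMP production was fitted to a 4-parameter logistic equation.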

Assay [2] addresses human FPR2 (Homo sapiens (Human), UniProt P25090). Description: FPR2 cyclic adenosine monophosphate (cAMP) assay. Particulars: CHO cells overexpressing human FPR2; forskolin 5 μM, IBMX 200 μM; inhibition of cAMP production, HTRF; read-out: hFPR2 cAMP2 EC50. The class given is cell-based. In a few lines: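 CHO cells overexpressing human FPR2 (2,000/well) or FPR1 (4,000/well) incubated 30 min at room temperature with compound (0.020 nM–100 μM, 1% DMSO), IBMX 200 μM and forskolin (5 μM for FPR2, 10 μM for FPR1). Intracellular cAMP read by HTRF against a cAMP standard curve; inhibition of cAMP production fitted to a 4-parameter logistic.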

Chain of human FPR1 (P21462 whole entry): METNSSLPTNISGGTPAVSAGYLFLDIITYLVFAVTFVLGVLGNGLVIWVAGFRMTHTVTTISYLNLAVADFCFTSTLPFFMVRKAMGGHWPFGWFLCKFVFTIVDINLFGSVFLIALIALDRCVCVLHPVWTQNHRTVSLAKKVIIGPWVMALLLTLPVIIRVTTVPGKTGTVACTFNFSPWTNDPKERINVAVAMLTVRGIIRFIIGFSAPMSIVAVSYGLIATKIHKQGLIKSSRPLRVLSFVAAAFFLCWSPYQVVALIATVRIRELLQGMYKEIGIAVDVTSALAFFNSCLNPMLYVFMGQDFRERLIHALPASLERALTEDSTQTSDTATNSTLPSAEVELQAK
Chain of human FPR2 (P25090 whole entry): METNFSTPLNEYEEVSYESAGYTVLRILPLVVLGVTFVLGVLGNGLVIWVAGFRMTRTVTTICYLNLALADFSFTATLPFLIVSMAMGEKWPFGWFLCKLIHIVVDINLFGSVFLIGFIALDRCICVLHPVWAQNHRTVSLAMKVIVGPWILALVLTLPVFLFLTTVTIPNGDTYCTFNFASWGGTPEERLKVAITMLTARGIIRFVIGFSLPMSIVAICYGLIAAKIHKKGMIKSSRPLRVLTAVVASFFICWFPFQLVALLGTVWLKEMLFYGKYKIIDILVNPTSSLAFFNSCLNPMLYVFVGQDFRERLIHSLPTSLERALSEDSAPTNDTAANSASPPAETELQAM

Regarding `O=C(Nc1ccc(Cl)cc1F)N[C@@H]1CCN(c2ccc(-c3ccccc3N3CCOC3=O)c(F)c2F)C1=O` [Example 119], the figures for the EC50 in assay [1] and in assay [2] were 0.19 µM and 0.014 µM, respectively.

`CC1C[C@@H](NC(=O)Nc2ccc(C(F)(F)F)cc2F)C(=O)N1c1ccc(-c2cccnc2P(C)(C)=O)c(F)c1F` (stereo partly shown) [Example 120]: the EC50 in assay [1] is 0.16 µM; in assay [2], 0.00078 µM.

As to `CC1C[C@@H](NC(=O)Nc2ccc(Cl)cc2F)C(=O)N1c1ccc(-c2cccnc2P(C)(C)=O)c(F)c1F` (stereo partly shown) [Example 121], the EC50 in assay [1] amounted to 0.005 µM; in assay [2], 0.0003 µM.

In the case of `CC1C[C@@H](NC(=O)Nc2ccc(Cl)cc2F)C(=O)N1c1ccc(-c2cccnc2P(C)(C)=O)c(F)c1F` (stereo partly shown) [Example 122], the EC50 in assay [1] came out at 0.61 µM; in assay [2], 0.00081 µM.

Consider `CP(C)(=O)c1ncccc1-c1ccc(N2C(=O)[C@H](NC(=O)Nc3ccc(C(F)(F)F)cc3F)C[C@H]2CO)c(F)c1F` [Example 123], for which the EC50 in assay [1] was found to be 0.24 µM; in assay [2] it was 0.0015 µM.

Regarding `CP(C)(=O)c1ccccc1-c1ccc(N2CC(CO)[C@@H](NC(=O)Nc3ccc(C(F)(F)F)cc3F)C2=O)c(F)c1F` (stereo partly shown) [Example 124], the values for the EC50 in assay [1] and in assay [2] were 0.76 µM and 0.00079 µM, respectively.

Take `CP(C)(=O)c1ccccc1-c1ccc(N2CC(CO)[C@@H](NC(=O)Nc3ccc(Cl)cc3F)C2=O)c(F)c1F` (stereo partly shown) [Example 125]: the EC50 in assay [1] is 0.18 µM; in assay [2] it was 0.00099 µM.

On to `CP(C)(=O)c1ccccc1-c1ccc(N2CC(CO)[C@@H](NC(=O)Nc3ccc(Cl)cc3F)C2=O)c(F)c1F` (stereo partly shown) [Example 126], for which the EC50 in assay [1] is above 10 µM; in assay [2], 0.012 µM.

Consider `CP(C)(=O)c1ccccc1-c1ccc(N2CC(CO)[C@@H](NC(=O)Nc3ccc(Cl)cc3F)C2=O)c(F)c1F` (stereo partly shown) [Example 127], for which the values for the EC50 in assay [1] and in assay [2] were 0.92 µM and 0.018 µM, respectively.

For `CC1C[C@@H](NC(=O)Nc2ccc(C(F)(F)F)cc2F)C(=O)N1c1ccc(-c2cccnc2P(C)(C)=O)c(F)c1F` (stereo partly shown) [Example 128], the EC50 stood at 0.024 µM in assay [1] and 0.001 µM in assay [2].

For `CC1C[C@@H](NC(=O)Nc2ccc(Cl)cc2F)C(=O)N1c1ccc(-c2ccccc2S(C)(=O)=O)c(F)c1F` (stereo partly shown) [Example 129], the EC50 in assay [1] turned out to be 0.019 µM; in assay [2], 0.0024 µM.

`CC1(C)CN(c2ccc(-c3ccccc3P(C)(C)=O)c(F)c2F)C(=O)[C@@H]1NC(=O)Nc1cnc(Cl)cn1` [Example 130]: the EC50 was 3 µM in assay [1] and 0.0057 µM in assay [2].

For the compound `CP(C)(=O)c1ccccc1-c1ccc(N2C(=O)[C@H](NC(=O)Nc3ccc(C(F)(F)F)cc3F)C[C@H]2CN2CCOCC2)c(F)c1F` [Example 131], the EC50 in assay [1] was found to be 0.061 µM; in assay [2] it was 0.0012 µM.

For the compound `CP(C)(=O)c1ccccc1-c1ccc(N2CC3(CC3)[C@@H](NC(=O)Nc3ccc(Cl)cc3F)C2=O)c(F)c1F` [Example 132], the EC50 in assay [1] was determined as 0.028 µM; in assay [2], 0.00048 µM.

On to `CP(C)(=O)c1ccccc1-c1ccc(N2CC[C@@H](NC(=O)Nc3csc(Cl)c3)C2=O)c(F)c1F` [Example 133], for which the EC50 in assay [1] is above 5 µM; in assay [2] it was 0.15 µM.

On to `CP(C)(=O)c1ccccc1-c1ccc(N2CC[C@@H](NC(=O)Nc3cccc(Cl)c3)C2=O)c(F)c1F` [Example 134], for which the EC50 turned out to be 1500 µM in assay [1] and 0.0025 µM in assay [2].

In the case of `CP(C)(=O)c1ccccc1-c1ccc(N2CC[C@@H](NC(=O)Nc3ccc(Cl)s3)C2=O)c(F)c1F` [Example 135], the EC50 in assay [1] is 720 µM; in assay [2], 0.0029 µM.
